#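 Test compounds were applied to cells in 96-well plates for 48 hours at 5 doses. GI50: concentration for 50% inhibition of growth.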 Active and inactive are the calls of the source. Cut-off read from the data, not from the text of the source: active = GI50 up to about 1.1 µM and inactive = higher.
# Columns and labels:
# Test in all cases: growth of human tumour cells (NCI), 48 h
# M19-MEL = tested on: M19-MEL
# RXF 631 = tested on: RXF 631
# COLO 205 = tested on: COLO 205
# HOP-92 = tested on: HOP-92
# DLD-1 = tested on: DLD-1
# OVCAR-8 = tested on: OVCAR-8
# ACHN = tested on: ACHN
# A498 = tested on: A498
# HCT-116 = tested on: HCT-116
# SN12C = tested on: SN12C
# UO-31 = tested on: UO-31
# SF-539 = tested on: SF-539
# SF-268 = tested on: SF-268
# DMS-114 = tested on: DMS-114
# SF-295 = tested on: SF-295
# HOP-18 = tested on: HOP-18
# SK-OV-3 = tested on: SK-OV-3
# HCC 2998 = tested on: HCC 2998
# A549 = tested on: A549
# SK-MEL-2 = tested on: SK-MEL-2
# SK-MEL-5 = tested on: SK-MEL-5
# OVCAR-3 = tested on: OVCAR-3
# LXFL 529 = tested on: LXFL 529
# M14 = tested on: M14
# TK-10 = tested on: TK-10
# HL-60 = tested on: HL-60
# RPMI-8226 = tested on: RPMI-8226
# IGROV-1 = tested on: IGROV-1
# U-251 = tested on: U-251
# KM12 = tested on: KM12
# OVCAR-5 = tested on: OVCAR-5
# CCRF-CEM = tested on: CCRF-CEM
# RXF 393 = tested on: RXF 393
# CAKI-1 = tested on: CAKI-1
# MOLT-4 = tested on: MOLT-4
# NCI-H522 = tested on: NCI-H522
# K562 = tested on: K562
# NCI-H23 = tested on: NCI-H23
# LOX IMVI = tested on: LOX IMVI
# OVCAR-4 = tested on: OVCAR-4
# SNB-75 = tested on: SNB-75
# SK-MEL-28 = tested on: SK-MEL-28
# DMS-273 = tested on: DMS-273
# Malme-3M = tested on: Malme-3M
# UACC-62 = tested on: UACC-62
# NCI-H226 = tested on: NCI-H226
# EKVX = tested on: EKVX
# KM-20L2 = tested on: KM-20L2
# HT-29 = tested on: HT-29
# HCT-15 = tested on: HCT-15
# SNB-19 = tested on: SNB-19
# 786-0 = tested on: 786-0
# UACC-257 = tested on: UACC-257
# SW-620 = tested on: SW-620
smiles,measurement,setting,value
[O-][S+]1Nc2c(Cl)cc(Cl)c3c(Cl)cc(Cl)c(c23)N1,GI50,M19-MEL,32.4 µM (inactive)
same,GI50,RXF 631,31.8 µM (inactive)
same,GI50,COLO 205,> 100 µM (inactive)
same,GI50,HOP-92,21.3 µM (inactive)
same,GI50,DLD-1,28.6 µM (inactive)
same,GI50,OVCAR-8,32.4 µM (inactive)
same,GI50,ACHN,27.7 µM (inactive)
same,GI50,A498,21.9 µM (inactive)
same,GI50,HCT-116,34.1 µM (inactive)
same,GI50,SN12C,34.6 µM (inactive)
same,GI50,UO-31,51.8 µM (inactive)
same,GI50,SF-539,36.7 µM (inactive)
same,GI50,SF-268,34.6 µM (inactive)
same,GI50,DMS-114,36.3 µM (inactive)
same,GI50,SF-295,53.1 µM (inactive)
same,GI50,HOP-18,34.1 µM (inactive)
same,GI50,SK-OV-3,45.7 µM (inactive)
same,GI50,HCC 2998,28.4 µM (inactive)
same,GI50,A549,29.6 µM (inactive)
same,GI50,SK-MEL-2,47 µM (inactive)
same,GI50,SK-MEL-5,37.8 µM (inactive)
same,GI50,OVCAR-3,30.6 µM (inactive)
same,GI50,LXFL 529,40.3 µM (inactive)
same,GI50,M14,31.8 µM (inactive)
same,GI50,TK-10,42.6 µM (inactive)
same,GI50,HL-60,34.2 µM (inactive)
same,GI50,RPMI-8226,37.8 µM (inactive)
same,GI50,IGROV-1,58.5 µM (inactive)
same,GI50,U-251,28.2 µM (inactive)
same,GI50,KM12,44.6 µM (inactive)
same,GI50,OVCAR-5,27.8 µM (inactive)
same,GI50,CCRF-CEM,31.6 µM (inactive)
same,GI50,RXF 393,21.9 µM (inactive)
same,GI50,CAKI-1,32.4 µM (inactive)
same,GI50,MOLT-4,22.6 µM (inactive)
same,GI50,NCI-H522,22.7 µM (inactive)
same,GI50,K562,41.5 µM (inactive)
same,GI50,NCI-H23,29.1 µM (inactive)
same,GI50,LOX IMVI,32.8 µM (inactive)
same,GI50,OVCAR-4,25.6 µM (inactive)
same,GI50,SNB-75,26.1 µM (inactive)
same,GI50,SK-MEL-28,62.8 µM (inactive)
same,GI50,DMS-273,39.4 µM (inactive)
same,GI50,Malme-3M,43.8 µM (inactive)
same,GI50,UACC-62,22.3 µM (inactive)
same,GI50,NCI-H226,25.1 µM (inactive)
same,GI50,EKVX,59.7 µM (inactive)
same,GI50,KM-20L2,46.5 µM (inactive)
same,GI50,HT-29,41.9 µM (inactive)
same,GI50,HCT-15,32.1 µM
same,GI50,SNB-19,40.3 µM (inactive)
same,GI50,786-0,18.5 µM (inactive)
same,GI50,UACC-257,54.7 µM (inactive)
same,GI50,SW-620,37.2 µM (inactive)

# Reference: ChEMBL document CHEMBL1201862, “PubChem BioAssay data set” (2004)
